Source: ChEMBL document CHEMBL1201862, “PubChem BioAssay data set” (2004)
Each block holds one molecule with its values, some of them ahead of it. Active and inactive are the calls of the source.

What was measured:
Mucolipin-3 = Mucolipin-3 (Homo sapiens, UniProt Q8TDD5); experiment: Dose response cell-based high-throughput screening assay for agonists of the transient receptor potential channel ML3 (TRPML3). [Related pubchem assays: 1526, 1424, 1448 ]; assay type: functional
Ion channel NompC = Ion channel NompC (Danio rerio, UniProt Q7T1G6); experiment: Fluorescence counterscreen assay for TRPML3 agonists: dose response cell-based high-throughput screening assay to identify agonists of the transient receptor potential channel N1 (TRPN1). [Related pubchem assays: 1526, 1424, 1448 ]; assay type: functional
[1] = molecular target: FAD-linked sulfhydryl oxidase ALR (Homo sapiens, UniProt P55789); experiment: ALR-catalysed DTT oxidation blockers – biochemical, H2O2 detection, luminescence, cherry-pick, dose response (AID 493248)
Procathepsin L = Procathepsin L (Homo sapiens, UniProt P07711)
Large T antigen = Large T antigen (Simian virus 40, UniProt P03070); assay type: functional, Betapolyomavirus macacae;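 note: Confirmatory-stage PubChem screen for compounds that inhibit SV40 T antigen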
[2] = viability loss in THP-1 monocytes – THP-1 cells, cytotoxicity control for Vif-APOBEC3G degradation inhibitor project, dose response (AID 1117359); assay type: functional; details: THP-1
[3] = HPDE-C7 pancreatic duct cell viability loss – fluorescence, HTS (AID 430); assay type: functional, cell-based; details: Homo sapiens
[4] = molecular target: T1, RNA-binding protein pos-1 (Caenorhabditis elegans, UniProt G5EF15); experiment: disruptors of C. elegans POS-1 RNA interaction – biochemical, fluorescence polarization, dose response (AID 1964);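 note: purified POS-1 fused to maltose binding protein made in E. coli; potency of compounds blocking POS-1 binding to fluorescent RNA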
T1 sequence (G5EF15 whole entry): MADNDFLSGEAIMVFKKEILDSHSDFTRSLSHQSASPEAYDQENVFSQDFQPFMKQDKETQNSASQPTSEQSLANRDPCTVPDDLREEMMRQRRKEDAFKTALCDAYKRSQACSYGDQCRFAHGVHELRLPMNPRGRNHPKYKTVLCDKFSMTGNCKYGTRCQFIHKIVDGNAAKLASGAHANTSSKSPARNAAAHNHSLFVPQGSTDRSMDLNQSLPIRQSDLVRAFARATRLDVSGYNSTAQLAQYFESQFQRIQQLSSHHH

[5] = viability loss of HPDE-C7K cells – cell-based, fluorescence, HTS, primary screen (AID 431); assay type: functional; details: Homo sapiens
Aspartyl aminopeptidase = molecular target: T2, Aspartyl aminopeptidase (Plasmodium falciparum 3D7, UniProt Q8I2J3)
T2 sequence (Q8I2J3 whole entry): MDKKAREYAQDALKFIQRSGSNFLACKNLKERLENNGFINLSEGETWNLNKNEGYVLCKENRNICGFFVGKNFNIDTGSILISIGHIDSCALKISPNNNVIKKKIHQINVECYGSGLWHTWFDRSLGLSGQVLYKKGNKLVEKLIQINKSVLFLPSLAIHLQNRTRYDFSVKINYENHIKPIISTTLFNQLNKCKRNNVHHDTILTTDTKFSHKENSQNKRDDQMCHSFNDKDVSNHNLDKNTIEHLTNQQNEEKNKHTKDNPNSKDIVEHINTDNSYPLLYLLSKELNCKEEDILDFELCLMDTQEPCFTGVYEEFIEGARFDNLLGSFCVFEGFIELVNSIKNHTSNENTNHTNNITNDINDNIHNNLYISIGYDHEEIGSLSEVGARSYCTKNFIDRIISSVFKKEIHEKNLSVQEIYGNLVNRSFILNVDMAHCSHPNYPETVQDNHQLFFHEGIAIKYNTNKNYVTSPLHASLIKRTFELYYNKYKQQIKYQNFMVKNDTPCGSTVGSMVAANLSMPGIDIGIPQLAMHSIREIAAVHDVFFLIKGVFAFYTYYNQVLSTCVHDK

[6] = molecular target: T3, Zinc finger protein mex-5 (Caenorhabditis elegans, UniProt Q9XUB2); experiment: potency of MEX-5 RNA-binding blockers – biochemical, C. elegans, fluorescence polarization, dose response (AID 1960)
T3 sequence (Q9XUB2 whole entry): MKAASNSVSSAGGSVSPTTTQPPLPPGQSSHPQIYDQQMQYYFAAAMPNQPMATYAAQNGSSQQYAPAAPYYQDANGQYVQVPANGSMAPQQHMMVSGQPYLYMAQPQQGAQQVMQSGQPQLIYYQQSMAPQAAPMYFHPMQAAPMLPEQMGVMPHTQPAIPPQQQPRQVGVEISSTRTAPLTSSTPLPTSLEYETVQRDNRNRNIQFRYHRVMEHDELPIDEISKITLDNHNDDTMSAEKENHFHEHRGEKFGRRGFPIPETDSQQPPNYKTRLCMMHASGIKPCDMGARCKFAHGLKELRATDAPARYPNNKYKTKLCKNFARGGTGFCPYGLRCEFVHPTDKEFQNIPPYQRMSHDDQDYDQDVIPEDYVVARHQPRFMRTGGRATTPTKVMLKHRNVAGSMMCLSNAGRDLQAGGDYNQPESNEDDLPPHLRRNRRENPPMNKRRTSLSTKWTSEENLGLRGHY

Estrogen receptor = molecular target: T4, Estrogen receptor (Homo sapiens, UniProt P03372); experiment: ERα coactivator recruitment enhancers – biochemical, TR-FRET, ERα LBD, dose response (AID 737)
T4 sequence (P03372 whole entry): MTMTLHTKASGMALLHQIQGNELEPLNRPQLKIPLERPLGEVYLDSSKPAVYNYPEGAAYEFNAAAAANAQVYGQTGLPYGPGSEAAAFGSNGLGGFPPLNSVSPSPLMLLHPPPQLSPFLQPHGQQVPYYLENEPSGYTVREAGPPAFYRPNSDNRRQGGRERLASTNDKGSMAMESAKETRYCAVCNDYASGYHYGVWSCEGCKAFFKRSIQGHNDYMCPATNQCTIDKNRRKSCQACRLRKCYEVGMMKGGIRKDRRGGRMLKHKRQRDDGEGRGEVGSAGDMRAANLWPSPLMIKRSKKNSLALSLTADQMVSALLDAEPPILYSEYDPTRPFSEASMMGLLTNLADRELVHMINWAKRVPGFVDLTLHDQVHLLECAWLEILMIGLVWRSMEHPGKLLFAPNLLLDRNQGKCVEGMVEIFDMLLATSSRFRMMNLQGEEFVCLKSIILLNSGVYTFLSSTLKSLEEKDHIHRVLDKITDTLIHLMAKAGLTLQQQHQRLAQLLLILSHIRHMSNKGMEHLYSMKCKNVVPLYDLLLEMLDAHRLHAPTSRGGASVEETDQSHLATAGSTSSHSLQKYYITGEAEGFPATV

HT-1080 = experiment: HT1080 cell viability loss – fluorescence readout (AID 620); assay type: functional, cell-based; details: Homo sapiens
[7] = molecular target: Luciferin 4-monooxygenase (Photinus pyralis, UniProt P08659); experiment: Counter Screen for Luciferase-based Assay Positives. [Related pubchem assays: 620, 618, 411 ]
[8] = molecular target: T5, Neuropeptide Y receptor type 2 (Homo sapiens, UniProt P49146); experiment: IC50 for human NPY-Y2 blockade – cell-based, counter-screen for NPY-Y1 antagonist project, dose response (AID 1278); assay type: functional
T5 sequence (P49146 whole entry): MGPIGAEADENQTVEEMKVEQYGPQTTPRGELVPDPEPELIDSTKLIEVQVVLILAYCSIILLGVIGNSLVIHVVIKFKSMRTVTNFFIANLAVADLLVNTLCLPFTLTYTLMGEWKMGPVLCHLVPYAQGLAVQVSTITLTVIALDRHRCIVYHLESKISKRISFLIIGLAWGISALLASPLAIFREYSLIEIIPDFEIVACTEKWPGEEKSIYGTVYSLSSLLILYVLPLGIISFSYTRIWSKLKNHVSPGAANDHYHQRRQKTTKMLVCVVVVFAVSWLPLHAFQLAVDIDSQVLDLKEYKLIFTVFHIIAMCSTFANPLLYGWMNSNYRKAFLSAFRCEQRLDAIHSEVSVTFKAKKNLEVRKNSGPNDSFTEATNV

[9] = molecular target: T6, Neuropeptide Y receptor type 1 (Homo sapiens, UniProt P25929); experiment: IC50 of human NPY-Y1 blockers – cell-based, dose response (AID 1277); assay type: functional
T6 sequence (P25929 whole entry): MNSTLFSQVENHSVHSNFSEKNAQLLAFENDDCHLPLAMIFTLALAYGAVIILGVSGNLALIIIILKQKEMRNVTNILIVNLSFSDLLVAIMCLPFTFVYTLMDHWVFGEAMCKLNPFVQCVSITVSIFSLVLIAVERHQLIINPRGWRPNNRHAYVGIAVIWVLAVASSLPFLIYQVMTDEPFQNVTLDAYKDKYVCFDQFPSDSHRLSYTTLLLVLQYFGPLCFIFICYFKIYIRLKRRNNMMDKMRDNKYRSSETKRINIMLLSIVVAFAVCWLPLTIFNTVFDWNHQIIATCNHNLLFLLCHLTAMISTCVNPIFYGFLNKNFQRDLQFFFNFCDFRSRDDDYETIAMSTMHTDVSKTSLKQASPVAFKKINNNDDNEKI

Chain of Procathepsin L (P07711 whole entry): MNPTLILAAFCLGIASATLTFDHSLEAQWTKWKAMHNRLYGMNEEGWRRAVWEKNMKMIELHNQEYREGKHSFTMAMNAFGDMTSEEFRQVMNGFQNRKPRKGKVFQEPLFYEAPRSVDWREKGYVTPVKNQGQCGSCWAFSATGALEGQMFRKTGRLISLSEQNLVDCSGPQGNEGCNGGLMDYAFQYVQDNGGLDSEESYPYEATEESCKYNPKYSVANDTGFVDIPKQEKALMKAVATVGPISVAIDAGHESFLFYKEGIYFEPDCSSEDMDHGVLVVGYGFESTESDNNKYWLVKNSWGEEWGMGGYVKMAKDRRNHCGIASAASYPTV
Chain of Luciferin 4-monooxygenase (P08659 whole entry): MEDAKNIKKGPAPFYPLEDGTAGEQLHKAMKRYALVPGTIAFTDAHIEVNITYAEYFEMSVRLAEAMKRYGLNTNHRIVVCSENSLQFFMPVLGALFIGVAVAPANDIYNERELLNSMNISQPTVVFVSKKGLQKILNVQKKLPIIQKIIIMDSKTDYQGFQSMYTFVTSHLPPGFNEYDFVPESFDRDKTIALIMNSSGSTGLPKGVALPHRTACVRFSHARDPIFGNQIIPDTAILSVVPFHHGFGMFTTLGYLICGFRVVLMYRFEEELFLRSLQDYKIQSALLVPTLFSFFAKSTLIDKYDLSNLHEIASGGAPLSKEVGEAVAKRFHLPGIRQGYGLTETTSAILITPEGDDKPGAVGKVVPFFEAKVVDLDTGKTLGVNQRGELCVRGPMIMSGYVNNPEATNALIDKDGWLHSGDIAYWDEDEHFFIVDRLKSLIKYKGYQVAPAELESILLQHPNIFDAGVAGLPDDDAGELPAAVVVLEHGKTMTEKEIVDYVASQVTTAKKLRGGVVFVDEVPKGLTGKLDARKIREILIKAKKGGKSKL
Chain of Ion channel NompC (Q7T1G6 whole entry): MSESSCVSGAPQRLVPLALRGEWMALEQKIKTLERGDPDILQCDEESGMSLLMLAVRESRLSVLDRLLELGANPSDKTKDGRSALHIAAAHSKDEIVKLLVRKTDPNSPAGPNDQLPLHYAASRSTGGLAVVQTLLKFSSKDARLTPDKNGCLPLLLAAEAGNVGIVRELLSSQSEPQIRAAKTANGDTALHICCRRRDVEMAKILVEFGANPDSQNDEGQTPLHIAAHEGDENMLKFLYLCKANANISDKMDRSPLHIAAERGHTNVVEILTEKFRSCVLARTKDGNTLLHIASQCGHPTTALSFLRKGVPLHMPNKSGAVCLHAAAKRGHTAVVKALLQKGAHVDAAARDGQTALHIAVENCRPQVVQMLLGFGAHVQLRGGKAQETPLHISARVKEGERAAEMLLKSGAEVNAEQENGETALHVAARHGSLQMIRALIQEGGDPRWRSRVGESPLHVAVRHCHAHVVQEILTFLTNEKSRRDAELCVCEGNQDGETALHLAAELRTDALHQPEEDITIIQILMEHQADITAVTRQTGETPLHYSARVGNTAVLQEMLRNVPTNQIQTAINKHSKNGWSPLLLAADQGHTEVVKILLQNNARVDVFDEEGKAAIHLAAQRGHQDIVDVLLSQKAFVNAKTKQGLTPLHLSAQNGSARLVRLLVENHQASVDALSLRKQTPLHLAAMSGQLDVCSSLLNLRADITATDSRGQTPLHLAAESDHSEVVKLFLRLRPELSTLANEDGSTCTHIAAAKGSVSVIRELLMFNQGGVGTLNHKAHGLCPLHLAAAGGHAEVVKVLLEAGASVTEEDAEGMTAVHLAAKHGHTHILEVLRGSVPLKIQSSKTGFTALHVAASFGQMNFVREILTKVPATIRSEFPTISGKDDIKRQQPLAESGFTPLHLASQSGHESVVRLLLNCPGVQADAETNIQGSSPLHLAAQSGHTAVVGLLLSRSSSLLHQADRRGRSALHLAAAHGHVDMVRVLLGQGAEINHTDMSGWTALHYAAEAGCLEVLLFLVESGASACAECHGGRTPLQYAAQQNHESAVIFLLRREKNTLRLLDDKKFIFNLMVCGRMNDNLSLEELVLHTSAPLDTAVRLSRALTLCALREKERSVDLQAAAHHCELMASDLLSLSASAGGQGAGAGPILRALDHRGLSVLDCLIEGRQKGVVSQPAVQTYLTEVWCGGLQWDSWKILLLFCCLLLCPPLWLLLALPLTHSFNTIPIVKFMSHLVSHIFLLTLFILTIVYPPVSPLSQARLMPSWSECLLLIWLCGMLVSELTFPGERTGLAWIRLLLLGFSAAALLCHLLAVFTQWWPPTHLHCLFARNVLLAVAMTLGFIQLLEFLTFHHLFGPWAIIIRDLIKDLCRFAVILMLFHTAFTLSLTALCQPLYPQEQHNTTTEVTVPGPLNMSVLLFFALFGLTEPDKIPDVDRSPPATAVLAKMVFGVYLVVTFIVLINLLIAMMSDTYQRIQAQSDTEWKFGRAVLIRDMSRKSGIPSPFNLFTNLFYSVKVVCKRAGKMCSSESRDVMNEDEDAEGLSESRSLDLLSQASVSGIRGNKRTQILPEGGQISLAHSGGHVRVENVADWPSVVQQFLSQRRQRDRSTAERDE
Chain of FAD-linked sulfhydryl oxidase ALR (P55789 whole entry): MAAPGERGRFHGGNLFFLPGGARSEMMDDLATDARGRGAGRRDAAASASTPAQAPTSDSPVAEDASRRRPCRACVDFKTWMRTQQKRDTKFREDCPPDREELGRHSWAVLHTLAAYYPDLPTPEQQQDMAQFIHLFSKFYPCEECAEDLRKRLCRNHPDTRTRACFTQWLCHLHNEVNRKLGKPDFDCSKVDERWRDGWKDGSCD
Chain of Mucolipin-3 (Q8TDD5 whole entry): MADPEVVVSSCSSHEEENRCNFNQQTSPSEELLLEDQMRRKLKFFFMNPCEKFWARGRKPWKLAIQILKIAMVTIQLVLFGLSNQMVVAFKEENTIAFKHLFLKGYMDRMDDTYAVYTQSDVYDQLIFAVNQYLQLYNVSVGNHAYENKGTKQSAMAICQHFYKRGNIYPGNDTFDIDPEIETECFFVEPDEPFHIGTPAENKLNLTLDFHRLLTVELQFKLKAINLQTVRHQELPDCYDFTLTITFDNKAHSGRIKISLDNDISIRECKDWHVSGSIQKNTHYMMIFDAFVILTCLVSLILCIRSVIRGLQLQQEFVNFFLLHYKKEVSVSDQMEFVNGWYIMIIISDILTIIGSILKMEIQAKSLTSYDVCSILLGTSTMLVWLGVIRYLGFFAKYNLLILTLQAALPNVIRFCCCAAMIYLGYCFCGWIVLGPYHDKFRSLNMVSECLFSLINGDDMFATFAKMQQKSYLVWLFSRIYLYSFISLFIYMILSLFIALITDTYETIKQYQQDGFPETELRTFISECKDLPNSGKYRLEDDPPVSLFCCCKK
Chain of Large T antigen (P03070 whole entry): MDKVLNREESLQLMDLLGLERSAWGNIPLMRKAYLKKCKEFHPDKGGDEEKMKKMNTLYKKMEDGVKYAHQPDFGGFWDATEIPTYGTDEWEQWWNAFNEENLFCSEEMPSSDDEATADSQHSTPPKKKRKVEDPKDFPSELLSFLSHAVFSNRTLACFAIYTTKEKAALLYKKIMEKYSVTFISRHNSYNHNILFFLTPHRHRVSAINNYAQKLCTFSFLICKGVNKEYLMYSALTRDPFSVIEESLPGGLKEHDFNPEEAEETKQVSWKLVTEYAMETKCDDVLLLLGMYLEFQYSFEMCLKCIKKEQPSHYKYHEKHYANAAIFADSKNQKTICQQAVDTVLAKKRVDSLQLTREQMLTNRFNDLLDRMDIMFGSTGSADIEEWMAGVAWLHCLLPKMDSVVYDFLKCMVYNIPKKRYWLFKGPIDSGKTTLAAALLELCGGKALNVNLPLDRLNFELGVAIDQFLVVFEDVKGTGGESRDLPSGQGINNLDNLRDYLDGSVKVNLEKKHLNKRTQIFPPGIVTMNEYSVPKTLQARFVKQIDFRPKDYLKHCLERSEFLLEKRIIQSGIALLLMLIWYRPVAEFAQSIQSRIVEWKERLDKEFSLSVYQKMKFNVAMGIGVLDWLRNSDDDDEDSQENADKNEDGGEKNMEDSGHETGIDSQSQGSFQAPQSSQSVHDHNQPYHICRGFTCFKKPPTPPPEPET

EC50 (Mucolipin-3): 2.24 µM (active)
EC50 (Ion channel NompC): > 29.9 µM (not active)
Structure (SMILES): Cc1cc(C)c(C(=O)c2ccc(C(=O)N(C(C)C)C(C)C)cc2)c(C)c1

Structure (SMILES): Oc1ccc(/C=C/c2cc(O)cc(O)c2)cc1 [RESVERATROL]
AC50 [1]: 4.02 µM (active)
IC50 (Procathepsin L): > 59.6 µM (not active)
IC50 (Large T antigen): 26.2 µM (active)
CC50 [2]: 26.3 µM (active)
EC50 [3]: 6.97 µM (active)
EC50 [4]: > 300 µM (not active)
EC50 [5]: > 20 µM (not active)
IC50 (Aspartyl aminopeptidase): 2.24 µM (active)
EC50 [6]: 163 µM (active)

EC50 (Estrogen receptor): 13 µM (not active)
Structure (SMILES): Cc1ccc(F)cc1NC(=O)c1cccc2nccnc12

Structure (SMILES): Cc1nn2cc(-c3ccccc3)nc2s1
EC50 (HT-1080): > 50 µM (not active)
EC50 [7]: 0.7 µM (active)

IC50 [8]: > 35 µM (not active)
IC50 [9]: > 35 µM (not active)
Structure (SMILES): COC(=O)[C@@]1(Cc2ccc(F)cc2)[C@H]2c3cc(C(=O)N4CCCC4)n(Cc4ccc(C(F)(F)F)nc4)c3C[C@H]2CN1C(=O)c1ccccc1
